How the values were obtained:
[1] = tested on: PAF-induced platelet aggregation (human platelets); test: In vitro platelet aggregation assay: inhibition of PAF-induced aggregation in platelet-rich plasma; format: cell-based; conditions: PAF-induced aggregation of human PRP, 2 min preincubation, 37° C., PAF 1-5×10^-8 M, read-out: PAF Antagonism (in vitro) IC50
Procedure: A. In Vitro Studies--Platelet Aggregation Assay
Platelet-activating factor (PAF) causes aggregation of platelets by a receptor-mediated mechanism. Therefore, PAF-induced platelet aggregation provides a simple and convenient assay to screen compounds for PAF antagonism.
Human blood (50 ml) was collected from healthy male donors in an anticoagulant solution (5 ml) containing sodium citrate (3.8%) and dextrose (2%). Blood was centriguged at 110×g for 15 min. and the supernatant platelet-rich plasma (PRP) carefully transferred into a polypropylene tube. Platelet-poor-plasma (PPP) was prepared by centrifuging PRP at 12,000×g for 2 min. (Beckman Microfuge B). PRP was used within 3 hr. of drawing the blood.
PAF was dissolved in chloroform:methanol (1:1, v/v) at a concentration of 2 mg/ml and stored at -70° C. An aliquot of this solution was transferred to a polypropylene tube and dried under a flow of nitrogen gas. To the dried sample was added Hepes-saline-BSA (BSA=bovine serum albumen) buffer (25 mM Hepes, pH 7.4, […], 0.7 mM MgCl2 and 0.1% BSA) to obtain a 1 mM solution and sonicated for 5 min. in a bath sonicator. This stock solution was further diluted to appropriate concentrations in Hepes-saline-BSA buffer. Collagen (Sigma) and adenosine diphosphate (ADP) (Sigma) were purchased as solutions. Test compounds were initially dissolved in dimethyl sulfoxide (DMSO) at a concentration of 50 mM and then further diluted in Hepes-saline-BSA buffer to achieve appropriate concentrations.
When an aggregating agent such as PAF is added to PRP, platelets aggregate. An aggregometer quantifies this aggregation by measuring and comparing light (infra-red) transmission through PPP and PRP. Aggregation assays were performed using a dual-channel aggregometer (Model 440, Chrono-Log Corp., Havertown, Pa.). PRP (0.45 ml) in aggregometer cuvettes was continually stirred (37° C.). Solutions (50 μL) of test compounds or vehicel were added to the PRP and, after incubation for 2 min., 10-15 μl aliquots of PAF solution were added to achieve a final concentration of 1-5×10^-8 M. In different experiments the aggreatory response was kept within a set limit by varying the concentration of PAF. Incubations were continued until the increase in light transmission reached a maximum (usually 2 min.). This increase in light transmission reflecting platlet aggregation is transmitted to a computer by the Chrono-Log model 810 AGGRO/LINK interface. The AGGRO/LINK calculates the slope of transmission change, thus providing the rate of aggregation. Values for inhibition were calculated by comparing rates of aggregation obtained in the absence and the presence of the compound. For each experiment, a standard PAF antagonist such as 8-chloro-6,11-dihydro-11-(1-acetyl-4-piperidylidene)-5H-benzo[5,6]cyclohepta[1,2-b]pyridine was used as a positive control. […]

[2] = tested on: PAF-induced bronchospasm; test: Spasmogen-induced bronchospasm in guinea pigs, PAF challenge; format: in vivo, guinea pig (male Hartley); conditions: dose 3 mpk, PAF 0.4 μg/kg i.v., inhibition of increase in inflation pressure vs control
[3] = tested on: histamine-induced bronchospasm; test: Spasmogen-induced bronchospasm in guinea pigs, histamine challenge; format: in vivo, guinea pig (male Hartley); conditions: dose 3 mpk, histamine 10 ug/kg i.v., inhibition of increase in inflation pressure vs control

Compound	IC50 [1]	Agonist Bronchospasm (in Vivo)-oral, PAF, % Inhibition [2]	Agonist Bronchospasm (in Vivo)-oral, Histamine, % Inhibition [3]
O=C(c1cc[n+]([O-])cc1)N1CCC(C2(O)c3ccccc3Oc3cnccc32)CC1 (stereo not shown) [IA-1]	5000 nM	–	–
O=C(c1cc[n+]([O-])cc1)N1CCC(C2(O)c3ccccc3Oc3cccnc32)CC1 (stereo not shown) [IA-3]	2000 nM	97%	0%
O=C(c1cc[n+]([O-])cc1)N1CCC(C2(O)c3ccccc3Oc3ncccc32)CC1 (stereo not shown) [IA-4]	800 nM	–	–
CN1c2ccccc2C(O)(C2CCN(C(=O)c3cc[n+]([O-])cc3)CC2)c2ccccc21 [IA-5]	5000 nM	7%	–
[O-][n+]1ccc(CN2CCC(C3(O)c4ccccc4Oc4cnccc43)CC2)cc1 (stereo not shown) [IA-9]	> 10000 nM	–	–
[O-][n+]1ccc(CN2CCC(C3(O)c4ccccc4Oc4ccccc43)CC2)cc1 [IA-10]	10000 nM	–	–
[O-][n+]1ccc(CN2CCC(C3(O)c4ccccc4Oc4cccnc43)CC2)cc1 (stereo not shown) [IA-11]	5000 nM	–	–
[O-][n+]1ccc(CN2CCC(C3(O)c4ccccc4Oc4ncccc43)CC2)cc1 (stereo not shown) [IA-12]	3000 nM	42%	0%

The remaining compounds from weak to strong by IC50 [1], led by results:

IC50 [1]	Compound	Agonist Bronchospasm (in Vivo)-oral, PAF, % Inhibition [2]	Agonist Bronchospasm (in Vivo)-oral, Histamine, % Inhibition [3]
5000 nM	O=C(c1cc[n+]([O-])cc1)N1CCC(C2(O)c3ccccc3Oc3ccccc32)CC1 [IA-2]	–	–
2000 nM	O=C(c1cc[n+]([O-])cc1)N1CCC(C2(O)c3ccccc3CCc3cccnc32)CC1 (stereo not shown) [IA-8]	25%	–
1750 nM	[O-][n+]1ccc(CN2CCC(C3(O)c4ccccc4Sc4ccccc43)CC2)cc1 [IA-14]	–	–
1500 nM	O=C(c1cc[n+]([O-])cc1)N1CCC(C2(O)c3ccccc3Sc3ccccc32)CC1 [IA-6]	20%	–

— patent US5561117A, “Bridged bis-aryl carbinol derivatives, compositions and methods of use” (Schering Corporation, priority 1994, dated 1996)
